Measured values from EP0795549A1, “Bis-aryloxy(amino)-triazinyl-oxy(amino)aryl derivatives, their preparation and their use as antiviral agents” (American Cyanamid Company, priority 1996, dated 1997).

Tests used:
RSV (A2) = assay: viral yield reduction (growth inhibition) assay, RSV; format: cell-based, Respiratory Syncitial Virus
Protocol: The compounds were tested for biological activity using viral yield reduction assays. Host cells (indicated as HF for human foreskin fibroblasts and as vero, the commonly used African green monkey cell line, in Tables 1 and 1a) were plated at 4 x 10^4 cells/well in cell growth medium with 2% fetal bovine serum or 2% calf serum in 96-well plates (0.1 ml/well) and incubated overnight. The compounds were added to individual wells to give final concentrations ranging from 50 to 0.1 µg/ml in two-fold concentration steps. After 1 hour, virus was added, and the incubation was continued for 4 days with RSV or CMV and for 2 days with HSV. At the end of the experiment, the amount of virus growth was quantitated and the yield reduction at various concentrations of compound was calculated. This allows estimation of the concentration of compound giving 50% reduction in virus growth (IC50).

RSV [1] = assay: viral plaque reduction assay, RSV; format: cell-based, Respiratory Syncitial Virus
CMV (Ad169) = assay: viral plaque reduction assay, CMV; format: cell-based, Cytomegalovirus
HSV1 (Patton) = assay: viral plaque reduction assay, HSV1; format: cell-based, Herpes Simplex Virus; details: HSV1 (Patton), vero host cells
HSV2 = assay: viral plaque reduction assay, HSV2; format: cell-based, herpes simplex virus; details: Pre
HPIV3 = assay: viral plaque reduction assay, HPIV3; format: cell-based, human parainfluenza virus type 3, strain Washington; details: HPIV3 WASH., VERO, Pre
FLU = assay: viral plaque reduction assay, influenza; format: cell-based; details: Pre
RSV [2] = assay: time of addition: effect on viral protein synthesis in infected Vero cells; format: cell-based
Protocol: The time in the virus life-cycle when Example 1 exerts its effect was determined to increase understanding of the mechanism of action. This was accomplished by adding and removing the compound at various times relative to infection and assessing the effect on viral protein synthesis. Vero cells were infected on ice for 1 hour, unadsorbed virus was removed, and then the infected cells were incubated at 37°C for 18 hours (virus adsorption will occur on ice, but fusion will not proceed until the temperature is raised to 18°C or above). After the 18 hour incubation at 37°C (when the bulk of ongoing protein synthesis was directed by viral RNAs), ^35S-methionine was added for 2 hours, the cells were lysed, and the labeled proteins were analyzed on SDS-PAGE gels. The viral N, P, and M proteins were then evident. […] However, when the compound of Example 1 was added even after only 5 minutes incubation at 37°C, viral protein production was unimpeded. Therefore, the process inhibited was the fusion process or some closely succeeding step which is required for later viral gene expression.

RSV A2 = format: in vivo, cotton rats; details: cotton rats, summary of Table 3

4,4'-Bis[4,6-di[3-aminophenyl-N,N-bis(2-carbamoyl-ethyl)sulfonylimino]-1,3,5-triazin-2-ylamino]-stilbene-2,2'-disulfonic acid, disodium salt [Example 1]
IC50 µG/mL IN GROWTH […]/ HF (RSV (A2); HF host cells): 0.3 µg/mL
IC50 µG/mL IN GROWTH […]/ VERO (RSV (A2); vero host cells): 0.5 µg/mL
IC50 (µG/ml) viral plaque formation (RSV [1]; RSV 2B, VERO, Pre): 0.1 µg/mL
IC50 (µG/ml) viral plaque formation (RSV [1]; RSV 3A, VERO, Pre): 0.5 µg/mL
IC50 (µG/ml) viral plaque formation (RSV [1]; RSV 9320, VERO, Pre): 0.2 µg/mL
IC50µG/mL IN PLAQUE ASSAY RSV/ VERO (RSV [1]; RSV (A2), vero host cells): 0.3 µg/mL
IC50 (µG/ml) viral plaque formation (RSV [1]; RSV A2, HF, Post 2 hours): <3 µg/mL
IC50 (µG/ml) viral plaque formation (RSV [1]; RSV A2, HF, Pre): 0.4 µg/mL
IC50 (µG/ml) viral plaque formation (RSV [1]; RSV A2, MDBK, Pre): 0.4 µg/mL
IC50 (µG/ml) viral plaque formation (RSV [1]; RSV A2, SKNSH, Pre): 0.4 µg/mL
IC50 (µG/ml) viral plaque formation (RSV [1]; RSV A2, VERO, Post 2 hours): 0.3 µg/mL
IC50 (µG/ml) viral plaque formation (RSV [1]; RSV A2, VERO, Post 24 hours): 0.4 µg/mL
IC50 (µG/ml) viral plaque formation (RSV [1]; RSV A2, VERO, Pre (pretreatment)): 0.3 µg/mL
IC50 (µG/ml) viral plaque formation (RSV [1]; RSV LONG, VERO, Pre): 0.2 µg/mL
active against all RSV strains tested (plaque assays) (RSV [1]; all RSV strains tested): 0.1 to 0.7 µg/mL
IC50µG/mL IN PLAQUE ASSAY CMV/ HF (CMV (Ad169); CMV (Ad169), HF host cells): 7 µg/mL
IC50 (µG/ml) viral plaque formation (CMV (Ad169); HCMV Ad169, HF, Pre): 15 µg/mL
IC50µG/mL IN PLAQUE ASSAY HSV/ VER O (HSV1 (Patton)): 8 µg/mL
IC50 (µG/ml) viral plaque formation (HSV2; HSV2 12, VERO): >10 µg/mL
IC50 (µG/ml) viral plaque formation (HSV2; HSV2 333, VERO): 3 µg/mL
IC50 (µG/ml) viral plaque formation (HSV2; HSV2 MS, VERO): 5 µg/mL
IC50 (µG/ml) viral plaque formation (HPIV3): 20 µg/mL
IC50 (µG/ml) viral plaque formation (FLU; FLU A1/FM/1/47, MDCK): >50 µg/mL
IC50 (µG/ml) viral plaque formation (FLU; FLU A2/HK/8/68, MDCK): >50 µg/mL
IC50 (µG/ml) viral plaque formation (FLU; FLU A2/JPN/305/57, MDCK): >50 µg/mL
IC50 (µG/ml) viral plaque formation (FLU; FLU A/Beij/32/92, MDCK): >20 µg/mL
IC50 (µG/ml) viral plaque formation (FLU; FLU A/Texas/36/91, MDCK): 5 µg/mL
IC50 (µG/ml) viral plaque formation (FLU; FLU B/Pana/45/90, MDCK): >20 µg/mL
viral protein synthesis (RSV [2]; 10 µg/ml added immediately after virus adsorption and before raising the incubation temperature to 37°C): fully prevented
viral protein production (RSV [2]; added after only 5 minutes incubation at 37°C): unimpeded
inhibition of RSV in vivo (summary in words) (RSV A2): inhibit RSV in vivo
